One assay concerns the target Estrogen receptor beta (Homo sapiens, UniProt Q92731). To be noted: sf9. Further: in other assays of this panel Not Active means under 50% inhibition at 10 µM.
Assay [1] can be described thus: DRUGMATRIX: GABAA, Flunitrazepam, Central radioligand binding (ligand: [3H] Flunitrazepam). The conditions noted are these: Not Active = under 50% inhibition at 10 µM. The assay is classed as cell membranes, Rattus norvegicus, Wistar, Brain, Membrane.
The nature of assay [2]: DRUGMATRIX: Calcium Channel Type L, Dihydropyridine radioligand binding (ligand: [3H] Nitrendipine). The assay is classed as cell membranes, Rattus norvegicus, Wistar, Cerebral cortex, Membrane. To be noted: Not Active = under 50% inhibition at 10 µM.
In assay [3] the target is Sodium-dependent noradrenaline transporter (Homo sapiens, UniProt P23975). The experiment in a line: DRUGMATRIX: Norepinephrine Transporter radioligand binding (ligand: [125I] RTI-55). The assay is classed as cell membranes, MDCK, Membrane. The conditions noted are these: Not Active = under 50% inhibition at 10 µM; for Ki: read-out: Ki.
Sequence of Sodium-dependent noradrenaline transporter (P23975 whole entry): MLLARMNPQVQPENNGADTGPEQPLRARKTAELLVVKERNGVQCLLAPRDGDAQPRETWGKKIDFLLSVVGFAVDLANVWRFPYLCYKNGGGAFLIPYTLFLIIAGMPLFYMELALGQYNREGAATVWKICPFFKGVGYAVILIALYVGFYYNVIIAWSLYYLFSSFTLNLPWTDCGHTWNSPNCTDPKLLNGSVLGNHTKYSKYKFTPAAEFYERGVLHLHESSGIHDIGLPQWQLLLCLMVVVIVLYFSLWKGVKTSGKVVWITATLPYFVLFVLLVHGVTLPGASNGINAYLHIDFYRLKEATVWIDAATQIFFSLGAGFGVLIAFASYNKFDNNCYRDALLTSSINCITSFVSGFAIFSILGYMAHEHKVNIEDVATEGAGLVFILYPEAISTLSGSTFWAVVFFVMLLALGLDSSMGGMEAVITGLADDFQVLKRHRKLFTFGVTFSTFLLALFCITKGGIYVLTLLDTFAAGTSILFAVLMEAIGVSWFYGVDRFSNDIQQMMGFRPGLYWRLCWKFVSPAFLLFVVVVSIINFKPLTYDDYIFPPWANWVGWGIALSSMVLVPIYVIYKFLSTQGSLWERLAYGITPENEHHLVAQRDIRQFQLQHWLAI
Assay [4] has as its target T1, C-X-C chemokine receptor type 1 (Homo sapiens, UniProt P25024). Further: in other assays of this panel Not Active means under 50% inhibition at 10 µM.
T1 sequence (P25024 whole entry): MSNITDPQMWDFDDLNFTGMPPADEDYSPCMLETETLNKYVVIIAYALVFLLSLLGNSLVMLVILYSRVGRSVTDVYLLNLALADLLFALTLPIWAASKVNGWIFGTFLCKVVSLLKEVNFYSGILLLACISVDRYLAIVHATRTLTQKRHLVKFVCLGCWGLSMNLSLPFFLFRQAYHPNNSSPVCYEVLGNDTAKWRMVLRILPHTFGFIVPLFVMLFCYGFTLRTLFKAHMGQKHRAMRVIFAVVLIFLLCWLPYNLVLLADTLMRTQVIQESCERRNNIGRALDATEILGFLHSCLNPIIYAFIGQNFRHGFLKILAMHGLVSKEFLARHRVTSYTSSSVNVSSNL

In the next assay the target is D(3) dopamine receptor (Homo sapiens, UniProt P35462). The experiment in a line: DRUGMATRIX: Dopamine D3 radioligand binding (ligand: [3H] Spiperone). The assay is classed as cell membranes, CHO, Membrane.
Sequence of D(3) dopamine receptor (P35462 whole entry): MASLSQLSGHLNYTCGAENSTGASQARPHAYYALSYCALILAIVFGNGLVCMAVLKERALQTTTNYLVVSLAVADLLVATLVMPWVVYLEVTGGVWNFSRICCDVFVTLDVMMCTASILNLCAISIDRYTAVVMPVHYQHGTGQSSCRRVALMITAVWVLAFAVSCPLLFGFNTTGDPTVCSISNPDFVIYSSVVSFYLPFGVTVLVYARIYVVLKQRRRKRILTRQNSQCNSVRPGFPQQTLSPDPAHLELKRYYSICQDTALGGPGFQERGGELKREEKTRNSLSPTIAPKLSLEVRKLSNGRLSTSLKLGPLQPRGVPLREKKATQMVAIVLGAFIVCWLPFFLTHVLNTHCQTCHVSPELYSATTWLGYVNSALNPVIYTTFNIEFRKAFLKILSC

Sequence of Estrogen receptor beta (Q92731 whole entry): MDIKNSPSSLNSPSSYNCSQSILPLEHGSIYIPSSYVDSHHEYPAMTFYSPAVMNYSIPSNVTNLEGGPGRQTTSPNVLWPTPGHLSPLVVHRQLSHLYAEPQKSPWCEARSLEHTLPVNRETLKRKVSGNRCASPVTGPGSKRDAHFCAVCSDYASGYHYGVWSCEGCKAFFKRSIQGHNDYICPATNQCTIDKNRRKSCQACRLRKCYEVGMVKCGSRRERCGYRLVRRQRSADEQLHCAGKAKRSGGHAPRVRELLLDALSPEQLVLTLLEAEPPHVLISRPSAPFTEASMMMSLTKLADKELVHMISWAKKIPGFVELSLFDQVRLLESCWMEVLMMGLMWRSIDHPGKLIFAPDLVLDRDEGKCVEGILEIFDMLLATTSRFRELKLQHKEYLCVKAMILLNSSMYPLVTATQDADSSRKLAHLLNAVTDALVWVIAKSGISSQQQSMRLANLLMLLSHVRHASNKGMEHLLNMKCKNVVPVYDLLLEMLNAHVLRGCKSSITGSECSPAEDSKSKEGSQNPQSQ

In the case of `NC(=O)CN1CCCC1=O`, the concentration for half-maximal inhibition (IC50) result (on Estrogen receptor beta; in assay [1]; in assay [2]; in assay [3] (mdck); in assay [4]; at D(3) dopamine receptor (cho)) was “Not Active” each time. Also, the Ki result in assay [1] and in assay [2] was “Not Active” in each case.

Consider `Nc1ccc(Cc2ccc(N)cc2)cc1`, for which the IC50 result (in assay [1]; in assay [2]; in assay [3] (mdck); in assay [4]; on D(3) dopamine receptor (cho)) was “Not Active” each time. Also, the inhibition constant (Ki) result in assay [1] and in assay [2] was “Not Active” in each case.

Consider `C=CCO` [ALLYL ALCOHOL], for which the half-maximal inhibitory concentration (IC50) entry (in assay [1]; in assay [2]; in assay [3] (mdck); in assay [4]; on D(3) dopamine receptor (cho)) was “Not Active” each time. Also, the Ki entry in assay [1] and in assay [2] was “Not Active” throughout.

For `Nc1ccc(C(=O)O)c(O)c1` [AMINOSALICYLIC ACID], the concentration for half-maximal inhibition (IC50) result (in assay [1]; in assay [2]; in assay [3] (mdck); in assay [4]; on D(3) dopamine receptor (cho)) was “Not Active” each time. For the same molecule, the inhibition constant Ki result in assay [1] and in assay [2] was “Not Active” each time.

As to `CC(C)(C#N)c1cc(Cn2cncn2)cc(C(C)(C)C#N)c1` [ANASTROZOLE], the half-inhibitory concentration (IC50) result (against Estrogen receptor beta; in assay [1]; in assay [2]; in assay [3] (mdck); in assay [4]; on D(3) dopamine receptor (cho)) was “Not Active” in each case. Besides, the inhibitory constant (Ki) entry in assay [1] and in assay [2] was “Not Active” in each case.

For `C[C@]12CC[C@@H](O)C[C@@H]1CC[C@@H]1[C@@H]2CC[C@]2(C)C(=O)CC[C@@H]12` [ANDROSTERONE], the IC50 entry (at Estrogen receptor beta; in assay [1]; in assay [2]; in assay [3] (mdck); in assay [4]; at D(3) dopamine receptor (cho)) was “Not Active” throughout. The Ki entry in assay [1] and in assay [2] was “Not Active” each time.

On to `NCC(CC(=O)O)c1ccc(Cl)cc1` (centres undefined) [BACLOFEN], for which the IC50 entry (at Estrogen receptor beta; in assay [1]; in assay [2]; in assay [3] (mdck); in assay [4]; on D(3) dopamine receptor (cho)) was “Not Active” in each case. The inhibitory constant (Ki) entry in assay [1] and in assay [2] was “Not Active” throughout.

For the molecule `OC[C@H]1O[C@@H]2O[C@H]3[C@H](O)[C@@H](O)[C@@H](O[C@H]4[C@H](O)[C@@H](O)[C@@H](O[C@H]5[C@H](O)[C@@H](O)[C@@H](O[C@H]6[C@H](O)[C@@H](O)[C@@H](O[C@H]7[C@H](O)[C@@H](O)[C@@H](O[C@H]8[C@H](O)[C@@H](O)[C@@H](O[C@H]1[C@H](O)[C@H]2O)O[C@@H]8CO)O[C@@H]7CO)O[C@@H]6CO)O[C@@H]5CO)O[C@@H]4CO)O[C@@H]3CO` [BETADEX], the concentration for half-maximal inhibition (IC50) result (in assay [1]; in assay [2]; in assay [3] (mdck); in assay [4]; on D(3) dopamine receptor (cho)) was “Not Active” each time. The Ki result in assay [1] and in assay [2] was “Not Active” each time.

`C[C@H]1C[C@H]2[C@@H]3CCC4=CC(=O)C=C[C@]4(C)[C@@]3(F)[C@@H](O)C[C@]2(C)[C@@]1(O)C(=O)CO` [BETAMETHASONE]: the IC50 entry (in assay [1]; in assay [2]; in assay [3] (mdck); in assay [4]; on D(3) dopamine receptor (cho)) was “Not Active” throughout. The Ki entry in assay [1] and in assay [2] was “Not Active” each time.

As to `CC(C)(c1ccc(O)cc1)c1ccc(O)cc1` [BISPHENOL A], the IC50 result was “Not Active” against Estrogen receptor beta; “Not Active” in assay [1]; “Not Active” in assay [2]; 16.6 µM in assay [3] (read-out: IC50); “Not Active” in assay [4]; “Not Active” on D(3) dopamine receptor (cho). Besides, the Ki entry is “Not Active” in assay [1], “Not Active” in assay [2] and 16.5 µM in assay [3].

Take `C[N+](C)(C)CCOC(N)=O.[Cl-]` [CARBACHOL]: the IC50 result (in assay [1]; in assay [2]; in assay [3] (mdck); in assay [4]; on D(3) dopamine receptor (cho)) was “Not Active” in each case. In addition, the Ki result in assay [1] and in assay [2] was “Not Active” each time.

Turning to `CCCCCCNC(=O)n1cc(F)c(=O)[nH]c1=O` [CARMOFUR], the concentration for half-maximal inhibition (IC50) result (at Estrogen receptor beta; in assay [1]; in assay [2]; in assay [3] (mdck); in assay [4]; at D(3) dopamine receptor (cho)) was “Not Active” throughout. For the same molecule, the inhibitory constant (Ki) result in assay [1] and in assay [2] was “Not Active” throughout.

`CCN1CCN(c2cc3c(cc2F)c(=O)c(C(=O)O)cn3C2CC2)CC1` [ENROFLOXACIN]: the IC50 result (at Estrogen receptor beta; in assay [1]; in assay [2]; in assay [3] (mdck); in assay [4]; on D(3) dopamine receptor (cho)) was “Not Active” throughout. Further, the inhibition constant Ki result in assay [1] and in assay [2] was “Not Active” each time.

Take `CC[C@H]1OC(=O)[C@H](C)[C@@H](O[C@H]2C[C@@](C)(OC)[C@@H](O)[C@H](C)O2)[C@H](C)[C@@H](O[C@@H]2O[C@H](C)C[C@H](N(C)C)[C@H]2O)[C@](C)(O)C[C@@H](C)C(=O)[C@H](C)[C@@H](O)[C@]1(C)O` [ERYTHROMYCIN]: the IC50 entry (on Estrogen receptor beta; in assay [1]; in assay [2]; in assay [3] (mdck); in assay [4]; at D(3) dopamine receptor (cho)) was “Not Active” each time. The Ki result in assay [1] and in assay [2] was “Not Active” throughout.

Regarding `COC(=O)Nc1nc2ccc(Sc3ccccc3)cc2[nH]1` [FENBENDAZOLE], the IC50 result (in assay [1]; in assay [2]; in assay [3] (mdck); in assay [4]; at D(3) dopamine receptor (cho)) was “Not Active” throughout. Also, the inhibition constant Ki entry in assay [1] and in assay [2] was “Not Active” in each case.

Consider `COc1ccc(Cl)cc1C(=O)NCCc1ccc(S(=O)(=O)NC(=O)NC2CCCCC2)cc1` [GLYBURIDE], for which the IC50 entry (against Estrogen receptor beta; in assay [1]; in assay [2]; in assay [3] (mdck); in assay [4]; at D(3) dopamine receptor (cho)) was “Not Active” each time. Also, the Ki entry in assay [1] and in assay [2] was “Not Active” in each case.

For `CCN(CCO)CCCC(C)Nc1ccnc2cc(Cl)ccc12` (centres undefined) [HYDROXYCHLOROQUINE], the half-maximal inhibitory concentration (IC50) entry (against Estrogen receptor beta; in assay [1]; in assay [2]; in assay [3] (mdck); in assay [4]; on D(3) dopamine receptor (cho)) was “Not Active” in each case. In addition, the inhibition constant Ki entry in assay [1] and in assay [2] was “Not Active” throughout.

With `O=C(NCCN1CCOCC1)c1ccc(Cl)cc1` [MOCLOBEMIDE], the 50% inhibitory concentration (IC50) result (on Estrogen receptor beta; in assay [1]; in assay [2]; in assay [3] (mdck); in assay [4]; on D(3) dopamine receptor (cho)) was “Not Active” in each case. Further, the inhibitory constant (Ki) entry in assay [1] and in assay [2] was “Not Active” each time.

Take `Cc1ccnc2c1NC(=O)c1cccnc1N2C1CC1` [NEVIRAPINE]: the IC50 entry (at Estrogen receptor beta; in assay [1]; in assay [2]; in assay [3] (mdck); in assay [4]; at D(3) dopamine receptor (cho)) was “Not Active” in each case. Moreover, the inhibitory constant (Ki) result in assay [1] and in assay [2] was “Not Active” throughout.

Regarding `C#C[C@]1(O)CC[C@H]2[C@@H]3CCC4=CC(=O)CC[C@@H]4[C@H]3CC[C@@]21C` [NORETHINDRONE], the IC50 entry on Estrogen receptor beta is “Not Active”; in assay [1] (read-out: IC50), 13.3 µM; in assay [2] it was “Not Active”; in assay [3] (mdck), “Not Active”; in assay [4], “Not Active”; at D(3) dopamine receptor (cho) it was “Not Active”. The inhibition constant Ki in assay [1] (read-out: Ki) is 10.9 µM; in assay [2], “Not Active”.

`Oc1ccccc1` [PHENOL]: the IC50 entry (in assay [1]; in assay [2]; in assay [3] (mdck); in assay [4]; at D(3) dopamine receptor (cho)) was “Not Active” each time. Besides, the Ki entry in assay [1] and in assay [2] was “Not Active” each time.

Consider `COc1cc([C@@H]2c3cc4c(cc3[C@H](O)[C@H]3COC(=O)[C@H]23)OCO4)cc(OC)c1OC` [PODOFILOX], for which the IC50 result (against Estrogen receptor beta; in assay [1]; in assay [2]; in assay [3] (mdck); in assay [4]; on D(3) dopamine receptor (cho)) was “Not Active” in each case. Moreover, the inhibitory constant (Ki) result in assay [1] and in assay [2] was “Not Active” in each case.

With `CC(CN1c2ccccc2Sc2ccccc21)N(C)C` (centres undefined) [PROMETHAZINE], the IC50 entry at Estrogen receptor beta is “Not Active”; in assay [1] it was “Not Active”; in assay [2] it was “Not Active”; in assay [3] (read-out: IC50), 4.24 µM; in assay [4], “Not Active”; at D(3) dopamine receptor (read-out: IC50), 0.559 µM. Further, the Ki entry is “Not Active” in assay [1], “Not Active” in assay [2], 4.2 µM in assay [3] and 0.19 µM at D(3) dopamine receptor (read-out: Ki).

The IC50 is the midpoint of a concentration-inhibition curve. Usually Ki stands for a measure of affinity in units of concentration, obtained from inhibition or displacement.
